From paper PMC10803289, “Transport and inhibition mechanism of the human SGLT2–MAP17 glucose transporter” (Nature Structural & Molecular Biology, 2023)
Values joined by “and” are separate entries in the source; they are usually repeats but may differ in a detail not shown here. Identical values can stand only once.

Tests used:
SGLT1 and SGLT2 = conditions: in words; cited from earlier work
Mock cells = test: α-MG uptake in mock (empty vector) HEK293 cells; type: cell-based, human; conditions: Control (no inhibitor)
Description: HEK293 cells (ECACC 85120602) were maintained in Dulbecco’s modified Eagle medium (Gibco) supplemented with 10% fetal bovine serum (Thermo Scientific), 2 mM L-glutamine, 100 U ml^−1 benzylpenicillin and 100 µg ml^−1 streptomycin at 37 °C in a humidified atmosphere (5% CO2 in air). HEK293 cells were seeded at 1.0 × 10^5 cells per well in poly-L-lysine coated 24-well plates. The cells in each well were transiently transfected with 0.25 µg hMAP17 plasmid and 0.50 µg hSGLT2 plasmid using Lipofectamine 2000 (Life Technologies) and cultured for 48 h. […]
Cell lysates were deproteinized by adding acetonitrile containing candesartan as the internal standard. The α-MG concentration was quantified via liquid chromatography–tandem mass spectrometry (LC–MS/MS) using the internal standard method.
Cellular protein content was determined using a bicinchoninic acid protein assay kit (Thermo Fisher Scientific). The uptake of α-MG was expressed as the ratio of concentration in the cells (in pmol per mg protein) to concentration in the medium (in pmol μl^−1); this is known as the cell-to-medium ratio (in μl per mg protein).
In the inhibition study, the cell-to-medium ratio of cells transfected with the empty vector was used as the background. […] IC50 was calculated via nonlinear regression using GraphPad Prism 8.4.3. […]

SMILES: Cc1ccc([C@@H]2O[C@H](CO)[C@@H](O)[C@H](O)[C@H]2O)cc1Cc1ccc(-c2ccc(F)cc2)s1 [Canagliflozin]
- subtype specificity of inhibition (SGLT1 vs SGLT2) (SGLT1 and SGLT2): SGLT2-specific inhibition

SMILES: CO[C@H]1O[C@H](CO)[C@@H](O)[C@H](O)[C@H]1O [α-MG, α-methyl-D-glucopyranoside]
- α-MG uptake (Mock cells): 1.2395 μL/mg-protein and 1.0638 μL/mg-protein and 1.0076 μL/mg-protein and 1.0525 μL/mg-protein
